Assay results as given in US12295957B2, “Ascorbic acid and quinone compounds in combination with an antiparasitic agent for treating a parasitic disease” (IC-MedTech Corp., priority 2018, dated 2025).
“Also recorded” adds a separate entry of the source.

Experiments:
Type in all cases: in vivo, BALB/c mice
[1] = test system: Trypanosoma cruzi; assay: Parasitemia by direct microscopic count of blood in mice infected with Trypanosoma cruzi; settings: 3-21 dpi
Experimental: (§1) Male BALB/c mice (approximately 7-8 weeks) were infected intraperitoneally with 10^4 parasites per mouse. Treatment started 24 hours after infection. The administration of vitamin C (i.e., L-ascorbic acid), vitamin K3 (i.e., 2-methyl-1,4-naphthoquinone or menadione), APATONE®, and benznidazole, alone or in combination, were administered once a day orally in different concentrations.
(§2) The mice were divided into the following groups and each group contained seven mice: • i. infected and not treated; • ii. infected and treated with 200 mg/kg of vitamin C; • iii. infected and treated with 3.5 mg/kg of vitamin K3; • iv. infected and treated with APATONE® (200 mg/kg of vitamin C and 3.5 mg/kg of vitamin K3); • v. infected and treated with APATONE® (200 mg/kg of vitamin C and 3.5 mg/kg of vitamin K3) plus 5 mg/kg benznidazole; • vi. infected and treated with benznidazole at 5 mg/kg; • vii. infected and treated with benznidazole at 100 mg/kg; and • viii. not infected and not treated.
Parasitemia levels were individually checked every day starting from 3 days postinfection (dpi) over a 21-day period by direct microscopic analysis of 5 μL blood drawn by puncture of the tail tip of each mouse. The parasites present in 50 fields were counted in 40× objective. Mortality was checked daily until 21 dpi and was expressed as a percentage of survival. […]

[2] = test system: Trypanosoma cruzi; assay: Survival/mortality of mice with acute Trypanosoma cruzi infection; settings: for mortality: vitamin C 200 mg/kg or vitamin K3 3.5 mg/kg alone, orally once a day
Experimental: as §1, §2
Parasitemia levels were individually checked every day starting from 3 days postinfection (dpi) over a 21-day period by direct microscopic analysis of 5 μL blood drawn by puncture of the tail tip of each mouse. The parasites present in 50 fields were counted in 40× objective. Mortality was checked daily until 21 dpi and was expressed as a percentage of survival. All assays were carried out after the approval of the Ethical Conduct on the use of Animals in Experiments (CEAE) of UE111, protocol number CEUA 6642060717.

[3] = test system: IL-6; assay: Heart cytokine level (cytokine bead array, flow cytometry) in T. cruzi infected mice: IL-6
Experimental: (§3) Cytokine analysis was performed on the mice infected with T. cruzi. A cytokine bead (CBA) kit was used to quantify the levels of Th1 cytokines (IL-2, TNF-α, and INF-γ), Th2 (IL-4, IL-5, and IL-10A), and Th17 (IL-17) by flow cytometry. Seven bead populations with different fluorescence intensities were conjugated to a specific capture antibody for each cytokine, mixed to the CBA and read […] FL3 channel of a FACSCalibur flow cytometer. The populations of beads were visualized according to their respective fluorescence intensities: from less bright to brighter.
(§4) Acquisition tubes were prepared with: 50 μL of a sample, 50 μL of beads, and 50 μL of Th1/Th2/Th17 PE (Mouse Th1/Th2/Th17 PE Detection Reagent/1 vial, 4 mL). The same procedure was performed to obtain a standard curve. The samples in the tubes were homogenized and incubated for three hours at room temperature in dark. The data acquisition and analysis were performed using a FACSCalibur flow cytometer equipped with a CellQuest software.
(§5) The levels of proinflammatory (IL-6, TNF-α, INF-γ, IL-2, and IL-17) and anti-inflammatory cytokines (IL-4 and IL-10) in heart (FIG. 3) in blood were determined on the mice infected with T. cruzi. […] However, the levels of IL-6 and TNF-α in this group were still high compared with the uninfected and untreated group. […] Thus, it is likely that the high levels of IL-6 and TNF-α in the mice infected with T. cruzi and treated with benznidazole (5 mg) are related to the inflammatory process induced by the parasite in the bloodstream. […] Thus, it is likely that the high levels of IL-6 and TNF-α in the mice infected with T. cruzi and treated with benznidazole (100 mg) are related to the proinflammatory activity of benznidazole (a side effect). […] The levels of IL-6, TNF-α, and IFN-γ in the group treated with APATONE® and benznidazole (5 mg/kg/day) in combination are similar to the levels of IL-6, TNF-α and IFN-γ in the uninfected and untreated group.

[4] = test system: TNF-α; assay: Heart cytokine level (cytokine bead array, flow cytometry) in T. cruzi infected mice: TNF-α
Experimental: as §3, §4, §5

[5] = benznidazole alone at 5 mg/kg, seven mice per group, until 21 dpi

Structure (SMILES) | parasites in the bloodstream (parasitemia) ([1]; benznidazole alone at 5 mg/kg orally once a day, 5 mg/kg) | parasites in the bloodstream (parasitemia) ([1]; benznidazole alone at 100 mg/kg orally once a day, 100 mg/kg) | mice remaining [2, 5] [mice] | mice that died [2, 5] | mice that died ([2]; benznidazole alone at 100 mg/kg, until 21 dpi) | level of IL-6 in heart compared with the infected and untreated group ([3]; benznidazole at 5 mg) | level of IL-6 in heart compared with the uninfected and untreated group ([3]; benznidazole at 5 mg) | level of IL-6 in heart compared with the infected and untreated group ([3]; benznidazole at 100 mg) | level of IL-6 in heart compared with the uninfected and untreated group ([3]; benznidazole at 100 mg) | level of TNF-α in heart compared with the infected and untreated group ([4]; benznidazole at 5 mg) | level of TNF-α in heart compared with the uninfected and untreated group ([4]; benznidazole at 5 mg) | level of TNF-α in heart compared with the infected and untreated group ([4]; benznidazole at 100 mg) | level of TNF-α in heart compared with the uninfected and untreated group ([4]; benznidazole at 100 mg) | mortality [2]
O=C(Cn1ccnc1[N+](=O)[O-])NCc1ccccc1 [benznidazole] | did not decrease the amount of parasites | no parasite was observed; also recorded: no parasite detected | 4 | Three mice died | No mice died | significant decrease | still high | significant decrease | still high | significant decrease | still high | significant decrease | still high | –
CC1=CC(=O)c2ccccc2C1=O [vitamin K3, 2-methyl-1,4-naphthoquinone] | – | – | – | – | – | – | – | – | – | – | – | – | – | died from day 14
O=C1O[C@H]([C@@H](O)CO)C(O)=C1O [vitamin C, L-ascorbic acid] | – | – | – | – | – | – | – | – | – | – | – | – | – | died from day 14
